Converted amounts (≈) assume the structure as drawn. Where two headings read alike, the source gives them in different places.
How the values were obtained:
[1] = test system: M. tuberculosis H37Rv (ATCC 27294); test: MIC by resazurin reduction microplate assay (REMA); format: cell-based; details: Mycobacterium tuberculosis, converted from μg/mL to μM
[2] = test system: M. tuberculosis H37Rv-LP (ATCC 25618); test: microbe, parasite or virus in culture; format: cell-based; details: concentration inhibiting 90% of growth, 5 days, read-out: MIC parental wild-type strain H37Rv-LP
in vitro = details: human
[3] = Mycobacterium tuberculosis, 120 h

| Structure (SMILES) | MIC [1] | also measured |
| --- | --- | --- |
| Cc1nc(NCCc2ccccc2)c2ccccc2n1 [9a] | 38 µM (≈ 10 µg/mL) |  |
| COc1ccc2nc(C)nc(NCCc3ccccc3)c2c1 [9b] | 34.1 µM (≈ 10 µg/mL) |  |
| Cc1nc(NCCc2ccccc2)c2cc(Br)ccc2n1 [9c] | 7.3 µM (≈ 2.5 µg/mL) |  |
| c1ccc(CCNc2ncnc3ccccc23)cc1 [9e] | 80.2 µM (≈ 20 µg/mL) |  |
| COc1ccc(CCNc2nc(C)nc3ccccc23)cc1 [10a] | 34.1 µM (≈ 10 µg/mL) |  |
| COc1ccc(CCNc2nc(C)nc3ccc(OC)cc23)cc1 [10b] | 30.9 µM (≈ 9.99 µg/mL) |  |
| COc1ccc(CCNc2nc(C)nc3ccc(Br)cc23)cc1 [10c] | 13.4 µM (≈ 4.99 µg/mL) |  |
| COc1ccc(CCNc2nc(C)nc3ccc(I)cc23)cc1 [10d] | 1.5 µM (≈ 0.629 µg/mL) | MIC [2, 3]: 0.92 µM (≈ 0.386 µg/mL); CC50 at 72 h (in vitro; CC50 HepG2+Gal): 6.4 µM; CC50 at 72 h (in vitro; CC50 HepG2+Glu): 10.8 µM |
| COc1ccc(CCNc2ncnc3ccccc23)cc1 [10e] | 71.6 µM (≈ 20 µg/mL) |  |
| Cc1nc(NCCc2ccc(Cl)cc2)c2ccccc2n1 [11a] | 16.8 µM (≈ 5 µg/mL) |  |
| COc1ccc2nc(C)nc(NCCc3ccc(Cl)cc3)c2c1 [11b] | 30.5 µM (≈ 10 µg/mL) |  |
| Cc1nc(NCCc2ccc(Cl)cc2)c2cc(Br)ccc2n1 [11c] | 13.3 µM (≈ 5.01 µg/mL) |  |
| Cc1nc(NCCc2ccc(Cl)cc2)c2cc(I)ccc2n1 [11d] | 0.73 µM (≈ 0.309 µg/mL) | MIC [2, 3]: 0.84 µM (≈ 0.356 µg/mL); CC50 at 72 h (in vitro; CC50 HepG2+Gal): 3.3 µM; CC50 at 72 h (in vitro; CC50 HepG2+Glu): 4.2 µM |
| Clc1ccc(CCNc2ncnc3ccccc23)cc1 [11e] | > 35.2 µM |  |
| Cc1nc(NCC(c2ccccc2)c2ccccc2)c2ccccc2n1 [12a] | 29.5 µM (≈ 10 µg/mL) |  |
| COc1ccc2nc(C)nc(NCC(c3ccccc3)c3ccccc3)c2c1 [12b] | 27.1 µM (≈ 10 µg/mL) |  |
| Cc1nc(NCC(c2ccccc2)c2ccccc2)c2cc(Br)ccc2n1 [12c] | > 23.9 µM |  |
| Cc1nc(NCC(c2ccccc2)c2ccccc2)c2cc(I)ccc2n1 [12d] | > 21.5 µM |  |
| c1ccc(C(CNc2ncnc3ccccc23)c2ccccc2)cc1 [12e] | > 30.7 µM |  |
| Cc1nc(NCCc2ccc(OC(F)(F)F)cc2)c2ccccc2n1 [13a] | 7.2 µM (≈ 2.5 µg/mL) |  |
| COc1ccc2nc(C)nc(NCCc3ccc(OC(F)(F)F)cc3)c2c1 [13b] | 13.3 µM (≈ 5.02 µg/mL) |  |

| Structure (SMILES) | MIC [1] | also measured |
| --- | --- | --- |
| FC(F)(F)Oc1ccc(CCNc2ncnc3ccccc23)cc1 [13e] | 60 µM (≈ 20 µg/mL) |  |
| Cc1nc(NCCc2ccc(S(N)(=O)=O)cc2)c2ccccc2n1 [14a] | > 117 µM |  |
| COc1ccc2nc(C)nc(NCCc3ccc(S(N)(=O)=O)cc3)c2c1 [14b] | > 107 µM |  |
| Cc1nc(NCCc2ccc(S(N)(=O)=O)cc2)c2cc(Br)ccc2n1 [14c] | > 94.9 µM |  |
| Cc1nc(NCCc2ccc(S(N)(=O)=O)cc2)c2cc(I)ccc2n1 [14d] | > 85.4 µM |  |
| NS(=O)(=O)c1ccc(CCNc2ncnc3ccccc23)cc1 [14e] | > 122 µM |  |
| Cc1ccc(CCNc2nc(C)nc3ccccc23)cc1 [15a] | 18 µM (≈ 4.99 µg/mL) |  |
| COc1ccc2nc(C)nc(NCCc3ccc(C)cc3)c2c1 [15b] | 16.3 µM (≈ 5.01 µg/mL) |  |
| Cc1ccc(CCNc2nc(C)nc3ccc(Br)cc23)cc1 [15c] | 7 µM (≈ 2.49 µg/mL) |  |
| Cc1ccc(CCNc2ncnc3ccccc23)cc1 [15e] | > 38 µM |  |
| CCc1ccc(CCNc2nc(C)nc3ccccc23)cc1 [16a] | 17.2 µM (≈ 5.01 µg/mL) |  |
| CCc1ccc(CCNc2nc(C)nc3ccc(OC)cc23)cc1 [16b] | 15.6 µM (≈ 5.01 µg/mL) |  |
| CCc1ccc(CCNc2nc(C)nc3ccc(Br)cc23)cc1 [16c] | 6.8 µM (≈ 2.52 µg/mL) | MIC [2, 3]: 2 µM (≈ 0.741 µg/mL); MIC [2]: 2.0 µM (≈ 0.741 µg/mL); CC50 at 72 h (in vitro; CC50 HepG2+Gal): 1.6 µM; CC50 at 72 h (in vitro; CC50 HepG2+Glu): 4 µM |
| CCc1ccc(CCNc2ncnc3ccccc23)cc1 [16e] | 36 µM (≈ 9.99 µg/mL) |  |
| Cc1nc(NCCc2ccc3ccccc3c2)c2ccccc2n1 [17a] | 8 µM (≈ 2.51 µg/mL) |  |
| COc1ccc2nc(C)nc(NCCc3ccc4ccccc4c3)c2c1 [17b] | 7.3 µM (≈ 2.51 µg/mL) |  |
| Cc1nc(NCCc2ccc3ccccc3c2)c2cc(I)ccc2n1 [17d] | 1.4 µM (≈ 0.615 µg/mL) | MIC [2, 3]: 1.4 µM (≈ 0.615 µg/mL); CC50 at 72 h (in vitro; CC50 HepG2+Gal): 5.2 µM; CC50 at 72 h (in vitro; CC50 HepG2+Glu): 7.1 µM |
| c1ccc2cc(CCNc3ncnc4ccccc34)ccc2c1 [17e] | > 16.7 µM |  |
| NNC(=O)c1ccncc1 [19 (INH), isoniazid, reference compound] | 2.3 µM (≈ 0.315 µg/mL) |  |
| CN[C@@H]1C[C@H]2O[C@@](C)([C@@H]1OC)n1c3ccccc3c3c4c(c5c6ccccc6n2c5c31)C(=O)NC4 [21 (STA), staurosporine, reference compound] |  | CC50 (in vitro; CC50 HepG2+Gal): 0.04 µM; CC50 (in vitro; CC50 HepG2+Glu): 0.03 µM |

Source: PMC12257397, “Scaffold Hopping Strategy toward New 4‑Aminoquinazolines Active Against Extracellular and Intracellular Mycobacterium tuberculosis” (ACS Medicinal Chemistry Letters, 2025)
